Legend:
Klebsiella pneumoniae [1] = assay: Growth inhibition of Klebsiella pneumoniae SIPI-KPN-1712 by broth microdilution method; type: organism-based; settings: in vitro
Klebsiella pneumoniae [2] = assay: Synergistic antibacterial activity against Klebsiella pneumoniae SIPI-KPN-1712 assessed as polymixin B MIC at 4 ug/ml by broth microdilution method (reference value: 32 ug/ml); type: functional
Klebsiella pneumoniae [3] = assay: Synergistic antibacterial activity against Klebsiella pneumoniae SIPI-KPN-1712 assessed as fractional Inhibitory concentration index in presence of polymixin B at 2 ug/ml by broth microdilution method; type: functional
Klebsiella pneumoniae [4] = assay: Synergistic antibacterial activity against Klebsiella pneumoniae SIPI-KPN-1712 assessed as fold reduction in polymixin B MIC at 4 ug/ml by broth microdilution method relative to polymixin B alone; type: functional

Structure (SMILES) | MIC (Klebsiella pneumoniae [2]) | MIC (Klebsiella pneumoniae [1]) | fractional inhibitory concentration index (FICI) (Klebsiella pneumoniae [3]) | fold change (FC) (Klebsiella pneumoniae [4])
OC1CCCc2nc(Nc3ccccc3)sc21 (centres undefined) | 32 µg/mL | > 128 µg/mL | 1.03 | 
O=C(OC1CCCc2nc(Nc3ccc(Cl)cc3)sc21)n1ccnc1 (centres undefined) | 32 µg/mL | > 128 µg/mL | 1.03 | 
COC1CCCc2nc(Nc3ccc4ccccc4n3)sc21 (centres undefined) | 32 µg/mL | > 128 µg/mL | 1.03 | 
CCOC1CCCc2nc(Nc3ccc(Oc4ccccc4C)cc3)sc21 (centres undefined) | 32 µg/mL | > 128 µg/mL | 1.03 | 
COC1CCCc2nc(Nc3nccs3)sc21 (centres undefined) | 32 µg/mL | > 128 µg/mL | 1.03 | 
COC1CCCc2nc(Nc3cccc(F)c3)sc21 (centres undefined) | 32 µg/mL | > 128 µg/mL | 1.03 | 
COC1CCCc2nc(Nc3ccc(C)cc3)sc21 (centres undefined) | 16 µg/mL | > 128 µg/mL | 0.53 | 
COC1CCCc2nc(Nc3ccc(NC(C)=O)cc3)sc21 (centres undefined) | 32 µg/mL | > 128 µg/mL | 1.03 | 
COC1CCCc2nc(Nc3ccc(Cl)cn3)sc21 (centres undefined) | 16 µg/mL | > 128 µg/mL | 0.53 | 
OC1CCCc2nc(Nc3ccc(F)cc3)sc21 (centres undefined) | 32 µg/mL | > 128 µg/mL | 1.03 | 
COC1CCCc2nc(Nc3ccc4ccccc4c3)sc21 (centres undefined) | 32 µg/mL | > 128 µg/mL | 1.03 | 
CCOC1CCCc2nc(Nc3ccc(F)cc3)sc21 (centres undefined) | 16 µg/mL | > 128 µg/mL | 0.53 | 
CCCCOC1CCCc2nc(Nc3ccc(C)cc3)sc21 (centres undefined) | 32 µg/mL | > 128 µg/mL | 1.03 | 
COc1ccc(Nc2nc3c(s2)C(OC)CCC3)cc1 (centres undefined) | 16 µg/mL | > 128 µg/mL | 0.53 | 
COC1CCCc2nc(Nc3ccccc3Cl)sc21 (centres undefined) | 32 µg/mL | > 128 µg/mL | 1.03 | 
COC1CCCc2nc(Nc3ccc(I)cc3)sc21 (centres undefined) | 16 µg/mL | > 128 µg/mL | 0.53 | 
COC1CCCc2nc(Nc3c(F)cccc3F)sc21 (centres undefined) | 32 µg/mL | > 128 µg/mL | 1.03 | 

Further lines, with some results ahead:

MIC (Klebsiella pneumoniae [2]) | Structure (SMILES) | MIC (Klebsiella pneumoniae [1]) | fractional inhibitory concentration index (FICI) (Klebsiella pneumoniae [3]) | fold change (FC) (Klebsiella pneumoniae [4])
2 µg/mL | COC1CCCc2nc(Nc3ccc(Br)cc3)sc21 (centres undefined) | > 128 µg/mL | 0.09 | 16
16 µg/mL | O=C(OC1CCCc2nc(Nc3ccc(Cl)cn3)sc21)n1ccnc1 (centres undefined) | > 128 µg/mL | 0.53 | 
1 µg/mL | COC1CCCc2nc(Nc3c(Cl)cccc3Cl)sc21 (centres undefined) | > 128 µg/mL | 0.06 | 
16 µg/mL | CCCCOC1CCCc2nc(Nc3ccc(Cl)cc3)sc21 (centres undefined) | > 128 µg/mL | 0.53 | 
16 µg/mL | O=C(OC1CCCc2nc(Nc3ccc(C(F)(F)F)cc3)sc21)n1ccnc1 (centres undefined) | > 128 µg/mL | 0.53 | 
1 µg/mL | CC(C)OC1CCCc2nc(Nc3ccc(Cl)cc3)sc21 (centres undefined) | > 128 µg/mL | 0.06 | 
4 µg/mL | COC1CCCc2nc(Nc3ccc(C(F)(F)F)cc3Cl)sc21 (centres undefined) | > 128 µg/mL | 0.16 | 
4 µg/mL | CCOC1CCCc2nc(Nc3ccc(C)cc3)sc21 (centres undefined) | > 128 µg/mL | 0.16 | 
8 µg/mL | Clc1ccc(Nc2nc3c(s2)C(OC2CCCC2)CCC3)cc1 (centres undefined) | > 128 µg/mL | 0.28 | 
